Measured values taken from ChEMBL document CHEMBL1201862, “PubChem BioAssay data set” (2004).
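Values below derive from 48-hour exposures of cells grown in 96-well plates, with endpoints linearly interpolated between the two concentrations bracketing the appropriate inhibition level. GI50 = concentration required for 50% inhibition of growth.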 Calls of active or inactive are those of the source. No stated cut-off is given here; in the data, active = GI50 up to about 1.1 µM and inactive = higher. Where a SMILES comes first, the peptide text is derived from it. Square brackets hold non-standard residues; d marks the D form. Peptide text beside a SMILES is read from it. [ ]: non-standard residue; d: D form. The star is where a group is joined. ξ: configuration not given here. X4 = COc1ccc(C(N*)c2ccc(OC)cc2)cc1; NMeF = CN[C@@H](Cc1ccccc1)C(=O)O; NMeD = CN[C@@H](CC(=O)O)C(=O)O; NMeV = CN[C@H](C(=O)O)C(C)C; ξNMeV = CNC(C(=O)O)C(C)C; Ac5c = NC1(C(=O)O)CCCC1; Boc = CC(C)(C)OC(=O)*; ξNMeA = CNC(C)C(=O)O; ξV = CC(C)C(N)C(=O)O

Tests used:
Assay in all cases: NCI-60 cell line screen, 48 h
[1] = tested on: PC-3
[2] = tested on: IGROV-1
[3] = tested on: Malme-3M
[4] = tested on: SF-539
[5] = tested on: K562
[6] = tested on: OVCAR-8
[7] = tested on: SF-295
[8] = tested on: DU-145
[9] = tested on: SNB-19
[10] = tested on: OVCAR-5
[11] = tested on: SNB-75
[12] = tested on: NCI/ADR-RES
[13] = tested on: LOX IMVI
[14] = tested on: UO-31
[15] = tested on: OVCAR-3
[16] = tested on: RPMI-8226
[17] = tested on: UACC-62
[18] = tested on: HCC 2998
[19] = tested on: CAKI-1
[20] = tested on: 786-0

Compound	GI50 [1]	GI50 [2]	GI50 [3]	GI50 [4]	GI50 [5]	GI50 [6]	GI50 [7]	GI50 [8]	GI50 [9]	GI50 [10]	GI50 [11]	GI50 [12]	GI50 [13]	GI50 [14]	GI50 [15]	GI50 [16]	GI50 [17]	GI50 [18]	GI50 [19]	GI50 [20]
O=C1Oc2cc(O)cc(/C=C/c3ccc(O)cc3)c2[C@@]12c1c(O)cc(O)cc1OC2c1cccc(O)c1 (stereo not given in full)	30.9 µM (inactive)	0.61 µM (active)	33.4 µM (inactive)	31.8 µM (inactive)	39.8 µM (inactive)	41.2 µM (inactive)	32.2 µM (inactive)	39 µM (inactive)	30.7 µM (inactive)	29.2 µM (inactive)	52.2 µM (inactive)	67.1 µM (inactive)	23.3 µM (inactive)	29.7 µM (inactive)	61.2 µM (inactive)	13.4 µM (inactive)	25.3 µM (inactive)	19.5 µM (inactive)	83.8 µM (inactive)	24.5 µM (inactive)
COc1ccc(C(NC(=O)C[C@@H](C(=O)N(C)C(C)C(=O)O)N(C)C(=O)[C@@H]2CCCN2C(=O)[C@H](C(C)C)N(C)C(=O)C(C(C)C)N(C)C(=O)[C@H](Cc2ccccc2)N(C)C(=O)C(NC(=O)OC(C)(C)C)C(C)C)c2ccc(OC)cc2)cc1 (stereo not given in full) (Boc-[ξV][NMeF][ξNMeV][NMeV]P[NMeD](X4)[ξNMeA]-OH)	13.7 µM (inactive)	8.43 µM (inactive)	14.4 µM (inactive)	7.94 µM (inactive)	11 µM (inactive)	22.1 µM (inactive)	18.9 µM (inactive)	25.9 µM (inactive)	22.4 µM (inactive)	> 37.5 µM (inactive)	4.24 µM (inactive)	> 37.5 µM (inactive)	7.66 µM (inactive)	24.8 µM (inactive)	13.3 µM (inactive)	8.24 µM (inactive)	6.73 µM (inactive)	6.76 µM (inactive)	29.6 µM (inactive)	21.3 µM (inactive)
NCC(=O)NC1(C(=O)O)CCCC1 (H-Gly-[Ac5c]-OH)	> 100 µM (inactive)	> 100 µM (inactive)	> 100 µM (inactive)	> 100 µM (inactive)	> 100 µM (inactive)	> 100 µM (inactive)	> 100 µM (inactive)	> 100 µM (inactive)	> 100 µM (inactive)	> 100 µM (inactive)	> 100 µM (inactive)	> 100 µM (inactive)	> 100 µM (inactive)	> 100 µM (inactive)	> 100 µM (inactive)	> 100 µM (inactive)	> 100 µM (inactive)	> 100 µM (inactive)	> 100 µM (inactive)	> 100 µM (inactive)
